From the supplement of paper PMC11061612 come the findings set out here.

What all share (assay): combination Emax (second highest fraction inhibited in the dose matrix, 72 h); higher = more inhibition; extreme values may be limits of the assay
Assay [1] has as its system EoL-1-cell (Acute Myeloid Leukemia). The gist of the method:
(§1)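 Bliss excess equals the observed combination effect minus the expected value EA + EB − EA·EB, where EA and EB are the effects of each agent alone. Combination Emax is the second-highest inhibition within the matrix. Inhibition was scaled from CellTiter-Glo 2.0 luminescence, with 0 set by vehicle wells and 1 by blank wells, after 72 hours of two-drug dosing of cells plated in 1536-well plates.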

The test system of assay [2] is SCC-15 (Oral Cavity Carcinoma). In short, it runs like this:
as §1

For assay [3], the system named is AMO-1 (Plasma Cell Myeloma). The gist of the method: as §1
Assay [4] has as its system Caov-4 (Ovarian Carcinoma). The gist of the method: as §1
Assay [5] deals with NCI-H358 (Lung Adenocarcinoma). In short, it runs like this:
as §1

For a further assay, the system named is YH-13 (Glioblastoma). The gist of the method:
as §1

The subject of assay [6] is TE-1 (Esophageal Squamous Cell Carcinoma). In short, it runs like this: as §1
For the next assay, the system named is PWR-1E (Non-Cancerous). In short, it runs like this:
as §1

Assay [7] deals with NCI-H1915 (Non-Small Cell Lung Carcinoma). The gist of the method: as §1
The test system of assay [8] is OE19 (Esophageal Adenocarcinoma). The gist of the method: as §1
Assay [9] concerns KARPAS-299 (T-Cell Non-Hodgkin's Lymphoma). In short, it runs like this:
as §1

In assay [10] the test system is HSC-4 (Oral Cavity Carcinoma). In short, it runs like this: as §1
The test system of assay [11] is MLMA (Other Blood Carcinomas). In short, it runs like this: as §1
Assay [12] concerns OVCAR-4 (Ovarian Carcinoma). In short, it runs like this: as §1
The subject of assay [13] is NUGC-3 (Gastric Carcinoma). The gist of the method: as §1
For assay [14], the system named is LU-65 (Non-Small Cell Lung Carcinoma). In short, it runs like this: as §1
Another assay concerns TK10 (Kidney Carcinoma). In short, it runs like this: as §1
The next assay concerns EW-24 (Ewing's Sarcoma). The gist of the method:
as §1

In assay [15] the test system is HGC-27 (Gastric Carcinoma). The gist of the method:
as §1

The subject of assay [16] is KMOE-2 (Acute Myeloid Leukemia). The gist of the method: as §1

For the compound `Cc1c2c(nn1C)CSCc1cc(n(C)n1)CSc1cc(c3ccccc3c1)OCCCc1c(C(=O)O)n(C)c3c-2c(Cl)ccc13` [AZD5991] + C=CCn1c(=O)c2cnc(Nc3ccc(N4CCN(C)CC4)cc3)nc2n1-c1cccc(C(C)(C)O)n1 [AZD1775] (first compound max 1 µM, partner max 1 µM), the “combination Emax” value in [1] came out at 1; in assay [2] it was 0.437; in assay [3], 1; in assay [4] it was 0.928; in [5], 0.649; in the assay with YH-13 (Glioblastoma), 0.411. Moreover, the “combination Emax” value in [6] was found to be 0.89; with PWR-1E (Non-Cancerous), 0.55; in assay [7], 0.649; in assay [8] it was 0.722; in [9] it was 0.992; in assay [10] it was 0.507. The “combination Emax” value came to 0.952 in [11]; 0.742 in assay [12]; 0.78 in assay [13]; 0.586 in assay [14]; 0.498 with TK10 (Kidney Carcinoma); 0.402 in the assay with EW-24 (Ewing's Sarcoma). In addition, the “combination Emax” value in [15] is 0.626; in assay [16] it was 0.992.

Take `Cc1c2c(nn1C)CSCc1cc(n(C)n1)CSc1cc(c3ccccc3c1)OCCCc1c(C(=O)O)n(C)c3c-2c(Cl)ccc13` [AZD5991] + CC1(C)CCC(CN2CCN(c3ccc(C(=O)NS(=O)(=O)c4ccc(NCC5CCOCC5)c([N+](=O)[O-])c4)c(Oc4cnc5[nH]ccc5c4)c3)CC2)=C(c2ccc(Cl)cc2)C1 [Venetoclax] (first compound max 1 µM, 7x7, partner max 1 µM): the “combination Emax” value turned out to be 1 in assay [1]; 0.236 in assay [2]; 1 in assay [3]; 0.616 in assay [4]; 0.217 in [5]; 0.145 with YH-13 (Glioblastoma). For the same compound, the “combination Emax” value is 0.65 in [6]; 0.199 with PWR-1E (Non-Cancerous); 0.187 in assay [7]; 0.457 in [8]; 0.968 in assay [9]; 0.142 in [10]. For the same compound, the “combination Emax” value amounted to 0.248 in assay [11]; 0.188 in [12]; 0.196 in assay [13]; 0.393 in assay [14]; 0.208 in the assay with TK10 (Kidney Carcinoma); 0.38 in the assay with EW-24 (Ewing's Sarcoma). In addition, the “combination Emax” value is 0.895 in [15] and 0.709 in assay [16].

For `Cc1c2c(nn1C)CSCc1cc(n(C)n1)CSc1cc(c3ccccc3c1)OCCCc1c(C(=O)O)n(C)c3c-2c(Cl)ccc13` [AZD5991] + CCN(CCO)CCCOc1ccc2c(Nc3cc(CC(=O)Nc4cccc(F)c4)[nH]n3)ncnc2c1 [AZD2811] (first compound max 1 µM, 7x7, partner max 1 µM), the “combination Emax” value in assay [1] came out at 1; in assay [2], 0.307; in assay [3], 1; in assay [4], 0.743; in assay [5], 0.403; in the assay on YH-13 (Glioblastoma), 0.579. For the same compound, the “combination Emax” value in assay [6] worked out at 0.676; in the assay with PWR-1E (Non-Cancerous), 0.939; in assay [7] it was 0.294; in [8], 0.937; in assay [9], 0.987; in [10] it was 0.404. Besides, the “combination Emax” value in [11] worked out at 0.245; in assay [12], 0.506; in assay [13], 0.391; in assay [14] it was 0.343; in the assay on TK10 (Kidney Carcinoma), 0.228; in the assay on EW-24 (Ewing's Sarcoma) it was 0.383. The “combination Emax” value in assay [15] was 1; in [16] it was 0.759.

Take `Cc1c2c(nn1C)CSCc1cc(n(C)n1)CSc1cc(c3ccccc3c1)OCCCc1c(C(=O)O)n(C)c3c-2c(Cl)ccc13` [AZD5991] + CN(C)CCCOc1ccc(-c2ccc3ncc4c(c3c2)n(C2CCOCC2)c(=O)n4C)cn1 [AZD0156] (first compound max 1 µM, 7x7, partner max 1 µM): the “combination Emax” value in assay [1] was determined as 0.999; in assay [2], 0.269; in assay [3], 1; in assay [4], 0.511; in assay [5], 0.308; with YH-13 (Glioblastoma), 0.254. The “combination Emax” value in assay [6] worked out at 0.635; in the assay on PWR-1E (Non-Cancerous) it was 0.29; in [7], 0.439; in [8], 0.573; in assay [9], 0.978; in assay [10] it was 0.197. In addition, the “combination Emax” value in [11] came out at 0.397; in assay [12] it was 0.279; in [13], 0.369; in [14] it was 0.366; with TK10 (Kidney Carcinoma) it was 0.272; in the assay with EW-24 (Ewing's Sarcoma), 0.291. Moreover, the “combination Emax” value in [15] worked out at 0.51; in [16] it was 0.797.

`Cc1c2c(nn1C)CSCc1cc(n(C)n1)CSc1cc(c3ccccc3c1)OCCCc1c(C(=O)O)n(C)c3c-2c(Cl)ccc13` [AZD5991] + C[C@@H]1COCCN1C2=NC(=NC(=C2)C3(CC3)[S@](=N)(=O)C)C4=C5C=CNC5=NC=C4 [AZD6738] (first compound max 1 µM, 7x7, partner max 10 µM): the “combination Emax” value was found to be 1 in assay [1]; 0.561 in [2]; 1 in [3]; 0.914 in [4]; 0.632 in assay [5]; 0.46 in the assay on YH-13 (Glioblastoma). In addition, the “combination Emax” value in [6] amounted to 0.747; in the assay on PWR-1E (Non-Cancerous), 0.985; in assay [7], 0.504; in assay [8], 0.746; in assay [9], 1; in assay [10], 0.678. The “combination Emax” value in [11] was determined as 0.697; in assay [12], 0.713; in assay [13] it was 0.69; in assay [14], 0.675; with TK10 (Kidney Carcinoma) it was 0.522; with EW-24 (Ewing's Sarcoma), 0.53. Also, the “combination Emax” value in [15] is 0.849; in assay [16], 0.873.

For the compound `Cc1c2c(nn1C)CSCc1cc(n(C)n1)CSc1cc(c3ccccc3c1)OCCCc1c(C(=O)O)n(C)c3c-2c(Cl)ccc13` [AZD5991] + C[C@@H](Nc1cc(F)cc(F)c1)c1cc(C(=O)N(C)C)cc2c(=O)cc(N3CCOCC3)oc12 [AZD8186] (first compound max 1 µM, 7x7, partner max 3 µM), the “combination Emax” value in assay [1] was determined as 1; in [2], 0.322; in [3] it was 1; in assay [4] it was 0.507; in assay [5], 0.282; in the assay on YH-13 (Glioblastoma) it was 0.585. Also, the “combination Emax” value in [6] was 0.589; in the assay with PWR-1E (Non-Cancerous), 0.268; in assay [7], 0.184; in [8], 0.49; in assay [9] it was 0.957; in [10], 0.24. For the same compound, the “combination Emax” value is 0.532 in assay [11]; 0.288 in assay [12]; 0.209 in assay [13]; 0.449 in assay [14]; 0.419 with TK10 (Kidney Carcinoma); 0.291 in the assay with EW-24 (Ewing's Sarcoma). The “combination Emax” value in assay [15] was 0.691; in assay [16] it was 0.644.
